From BindingDB's records for doi:10.1016/0960-894X(95)00473-7 (1995)

Molecular target: 5-hydroxytryptamine receptor 1D (Bos taurus)
Assay: Ability to bind to 5-hydroxytryptamine 1D receptor of calf substantia nigra

Row | Structure (SMILES) | IC50
1 | c1ccc2c(c1)CCC(CNCCCCCNC1=NCCCN1)O2 (stereo not given) | 10 nM
2 | COc1cccc2c1OC(CNCCCNC1=NCCCN1)CC2 (stereo not given) | 0.794 nM
3 | O=C1CCCN=C(NCCCNCC2CCc3ccccc3O2)N1 (stereo not given) | 158 nM
4 | c1ccc2c(c1)CC(CNCCCNC1=NCCCN1)O2 (stereo not given) | 126 nM
5 | c1ccc2c(c1)CCC(CNCCCNC1=NCCCC1)O2 (stereo not given) | 4 nM
6 | c1ccc2c(c1)CCC(CNCCCNc1ccncn1)O2 (stereo not given) | 10 nM
7 | c1ccc2c(c1)CCC(CNCCCNc1cnccn1)O2 (stereo not given) | 10 nM
8 | Clc1ccc(NCCCNCC2CCc3ccccc3O2)nn1 (stereo not given) | 2 nM
9 | COc1ccc2c(c1)OC(CNCCCNC1=NCCCN1)CC2 (stereo not given) | 3.2 nM
10 | c1ccc2c(c1)CCC(CNCCCNC1=NCCCN1)C2 (stereo not given) | 40 nM
11 | c1ccc2c(c1)CCC(CNCCCNc1nccs1)O2 (stereo not given) | 7.9 nM
12 | c1ccc2c(c1)CCC(CNCCCNC1=NCCN1)O2 (stereo not given) | 6.3 nM
13 | CC(C)NC(=N)NNCCCNCC1CCc2ccccc2O1 (stereo not given) | 3.2 nM
14 | c1cnc(NCCCNCC2CCc3ccccc3O2)nc1 (stereo not given) | 1.6 nM
15 | Fc1ccc2c(c1)CCC(CNCCCNC1=NCCCN1)O2 (stereo not given) | 7.9 nM
